# Earlier results, collected in patent publication US20030049320A1, “Novel in-situ forming controlled release microcarrier delivery system” (priority 2000, published 2003).
# Details: intravenously as a solution, reported in the literature
compound,measurement,value
CC(=O)O[C@H]1C(=O)[C@@]2(C)[C@H]([C@H](OC(=O)c3ccccc3)[C@]3(O)C[C@H](OC(=O)[C@H](O)[C@@H](NC(=O)c4ccccc4)c4ccccc4)C(C)=C1C3(C)C)[C@]1(OC(C)=O)CO[C@@H]1C[C@@H]2O [paclitaxel],Plasma elimination half-life of paclitaxel,1.1 h
